Assay [1] relates to H460^C GPX4^KO cells. Put plainly: cell-based assay of FSP1 activity, cell death (SYTOX Green/mCherry lethal fraction). The note with it: H460^C GPX4^KO cells; read-out: EC50 for triggering cell death. On the procedure: (§1) For cell-based screen, cells were seeded in triplicate at a density of 500-750 cells per 50 μL per well in black 384-well plates (NUNC) and (Corning) 24 hr before start of imaging. After 24 hr, an additional 50 μL of drug infused medium containing 30 nM SYTOX Green Dead Cell Stain was carefully placed into the wells on top of existing medium. The plates were immediately transferred to an IncuCyte S3 imaging system (Essen Bioscience) enclosed in an incubator set to 37° C. and 5% CO2. One image per well were captured in the phase, green, and red channels every 1.5 or 3 hr over a 24 hr period, and the ratio of SYTOX Green-positive objects (dead cells) to SYTOX Green-positive plus Sg-SAFE mCherry-positive objects (total cells) was quantified using S3 image analysis software (Essen Bioscience). For each treatment condition, the SYTOX-to-′SYTOX+mCherry′-object ratio was plotted against the 24 hr imaging interval, the Area Under the Curve (AUC) was calculated and the average AUC was plotted using Prism (GraphPad). To calculate the half-maximal effective concentration (EC50) values, the AUC curve was fit to a variable slope function comparing response to drug concentration.
In addition to the in vitro activity assay, an orthogonal cell-based assay of FSP1 activity was also developed. […]

Assay [2] concerns H460^C FSP1KO cells. Nature of the assay: RSL3-, DHA- or FINO2-induced cell death in FSP1 knockout cells. The format is cell-based. On the procedure: as §1
Synergy experiments: For cell-based synergy experiments, cells were seeded at a density of 750 cells per 25 μL per well in four black 384-well plates (Corning) 24 hr before start of imaging. […]

The test system of assay [3] is panel of cancer cell lines of various tissue origins. Put plainly: RSL3-induced cell death in a panel of cancer cell lines. The format is cell-based. The note with it: 1 μM FSEN1; lung, breast, liver, glial, bone, connective, lymphoid, skin lines. On the procedure:
as §1, with “concentration. […]” for “concentration.”

Assay [4] concerns A549 lung cancer cells. Nature of the assay: RSL3-induced cell death in A549 cells. The format is cell-based. On the procedure:
as §1, with “concentration. […]” for “concentration.”

Assay [5] relates to A375 melanoma cells. Put plainly: cell death in A375 cells. The format is cell-based. On the procedure: as §1, with “concentration. […]” for “concentration.”
For assay [6], the system named is H460^C cells. Nature of the assay: DHA- and FINO2-induced cell death with FSEN1 co-treatment. To be noted: 1 μM FSEN1. The format is cell-based. On the procedure: as §1
Synergy experiments: For cell-based synergy experiments, cells were seeded at a density of 750 cells per 25 μL per well in four black 384-well plates (Corning) 24 hr before start of imaging. After 24 hr, an additional 25 μL of drug infused medium containing 30 nM SYTOX Green Dead Cell Stain was carefully placed into the wells on top of existing medium. The plates were immediately transferred to an IncuCyte S3 imaging system (Essen Bioscience) enclosed in an incubator set to 37° C. and 5% CO2. One image per well were captured in the phase, green, and red channels every 4 hr over a 24 hr period, and the ratio of SYTOX Green-positive objects (dead cells) to SYTOX Green-positive plus Sg-SAFE mCherry-positive objects (total cells) was quantified using S3 image analysis software (Essen Bioscience). For each treatment condition, the SYTOX-to-′SYTOX+mCherry′-object ratio was plotted against the 24 hr imaging interval, the Area Under the Curve (AUC) was calculated, and the average AUC was plotted as a function of drug concentration (for example, RSL3) using Prism (GraphPad). To calculate the half-maximal effective concentration (EC50) values, the AUC curve was fit to a variable slope function comparing response to drug concentration.

Consider 1 compound from patent publication US20250161297A1, “COMPOSITIONS AND METHODS FOR INHIBITING FSP1” (THE REGENTS OF THE UNIVERSITY OF CALIFORNIA, priority 2022, published 2025).

The EC50 is the concentration that produces a half-maximal response.

On to `COc1ccc(N2CCN(Cc3cn4c(-c5ccc(Br)cc5)nnc4s3)CC2)cc1` [FSEN1], for which, in assay [1], the EC50 stood at 69.4 nM. The “additional sensitizing effect to DHA and FINO2 induced cell death” value in assay [2] (FSP1KO cells) is on record as “no additional sensitizing effect”. Besides, the “additional sensitization to RSL3-induced cell death” value in assay [2] (H460^C FSP1KO cells) is given as “did not result in any additional sensitization”. The “sensitization to RSL3-induced ferroptosis” value in assay [3] was “sensitized all cancer cells”. The “sensitizing effect on ferroptosis induction” value in assay [4] is recorded as “particularly large sensitizing effect”. Moreover, in assay [5], the “ferroptosis in the absence of an RSL3 co-treatment” value is listed as “induced a small amount of ferroptosis”. Also, the “sensitization to cell death induced by DHA and FINO2” value in assay [6] was “strongly sensitized”.
